Earlier results as cited in patent US20090018107A1, “NOVEL COMPOSITION TO INCREASE MUSCLE STRENGTH” (ORAL DELIVERY TECHNOLOGY LTD., priority 2007, published 2009).

Columns and labels:
[1] = U.S. Pat. No. 5,880,117
[2] = U.S. Pat. No. 6,989,378

| SMILES | Period of decline after the peak [1] [h] | Time to peak concentration after administration [1] [min] | Solubility in oily media [2] |
| --- | --- | --- | --- |
| C[C@]12CC[C@H]3[C@@H](CCC4=C[C@@H](O)CC[C@@]43C)[C@@H]1CC[C@@H]2O [4-androstene-3β,17β-diol] | 3 to 4 | ≤ 90 |  |
| CCCCCCCCCCC(=O)O[C@H]1CC[C@H]2[C@H]3[C@H](CC[C@]12C)[C@H]1CCC(=O)C=C1C[C@H]3C [MENT undecanoate, (7α,17β)-7-methyl-17-[(1-ox-oundecyl)oxy]estr-4-en-3one] |  |  | good solubility |
